Measurements as given in patent US8748435B2, “Pyrazolo pyrimidine derivatives” (Novartis AG, priority 2011, dated 2014).

How the values were obtained:
[1] = tested on: antigen-induced arthritis (knee swelling); assay: Rat antigen-induced arthritis model; format: in vivo; settings: oral gavage, AUC of R/L knee swelling ratio vs control
Description: e) GPR4 Activity in Rat Antigen-induced Arthritis Model Female Lewis rats were sensitised intradermally on the back at two sites to methylated bovine serum albumin (mBSA) homogenised 1:1 with complete Freund's adjuvant on days −21 and −14 (0.1 ml containing 1 mg/ml mBSA). On day 0, the right knee received […] of 10 mg/ml mBSA in 5% glucose solution (antigen injected knee), while the left knee received […] of 5% glucose solution alone (vehicle injected knee). The diameters of the left and right knees were then measured using calipers immediately after the intra-articular injections and again on days 2, 4 and 7. The compounds of the invention were administered twice daily by oral gavage; vehicle (saline) at 5 ml/kg, and dexamethasone at 0.3 mg/kg was given as a control. Right knee swelling was calculated as a ratio of left knee swelling, and the R/L knee swelling ratio plotted against time to give Area Under the Curve (AUC) graphs for control and treatment groups. The percentage inhibition of the individual treatment group AUCs were calculated vs the control group AUC (0% inhibition).

[2] = tested on: VEGF-induced angiogenesis; assay: GPR4 activity in VEGF-induced angiogenesis in mice (growth factor implant model); format: in vivo; settings: po 30 mg/kg bid, day 4 after chamber implantation
Description: d) GPR4 Activity in VEGF-Induced Angiogenesis in Mice
The functional activity of GPR4 was determined in the angiogenesis growth factor implant model. Porous tissue chambers made of perfluoro-alkoxy-Teflon were filled with 0.8% agar and 20 U/ml heparin supplemented with or without 8 μg/ml recombinant human VEGF. The solutions were maintained at 39° C. prior to the filling procedure. Mice were anesthetized using 3% isoflurane inhalation. For subcutaneous implantation, a small skin incision was made at the base of the tail to allow the insertion of an implant trocar. The chamber was implanted under aseptic conditions through the small incision onto the back of the animal. The skin incision was closed by wound clips. The compounds were applied po at 30 mg/kg bid starting at the day of the chamber implantation.
On the 4th day after implantation, animals were sacrificed using CO2. Chambers were excised and the vascularized fibrous tissue formed around each implant carefully removed and weighed and expressed as Δ tissue weight % [((compound/VEGF)−(no compound/no VEGF))/((no compound/VEGF)−no compound/no VEGF))×100]. Body weight was used to monitor the general condition of the mice.

CFA-induced hyperalgesia = assay: Established rat hyperalgesia model (CFA); format: in vivo; settings: gavage
Description: f) Established Rat Hyperalgesia Model
Naïve withdrawal thresholds of both hind paws were determined by using an increasing pressure stimulus placed onto the dorsal surface of each paw using an analgesymeter. Delayed inflammatory pain was then induced by intra-plantar injection of 25 μl of complete Freund's adjuvant (CFA) into one hindpaw with the contralateral paw acting as the control. […] One hour later, paw withdrawal thresholds were re-measured on both the ipsilateral (CFA-injected) and contralateral (uninjected) paw; measurements were repeated at 3 hrs and 6 hrs post dosing. The reversal of hyperalgesia was calculated using the following formula: Reversal (%)=100×(postdose ipsilateral threshold−predose ipsilateral threshold) (naïve ipsilateral threshold−predose ipsilateral threshold).

human GPR4 [3] = molecular target: T1, human GPR4 (Homo sapiens (Human), UniProt P46093); assay: Cell-based assay for human GPR4 activity (pH-induced cAMP formation, HTRF, HeLa cells); settings: HeLa cells stably expressing human GPR4, pH-induced cAMP
human GPR4 [4] = molecular target: T1, human GPR4; assay: Human GPR4 binding assay ([3H]4 radioligand, membranes of 300.19 cells expressing human GPR4); settings: radioligand [3H]4 (example 39), membranes of 300.19 cells expressing human GPR4
human GPR4 [5] = molecular target: T1, human GPR4; assay: Human GPR4 binding assay with additional human serum albumin (4% HSA); settings: binding assay with 4% HSA
Description: Cells were grown in T175 flasks to a density of about 1×10^6 cells/mL in growth medium. The cells were harvested by centrifugation (3000 rpm for 30 minutes at 4° C.) and the pellet resuspended in ice cold buffer A (20 mM HEPES pH 7.8, 10 mM EDTA, 100 mM NaCl, 1 tab/40 mL protease inhibitor complete). […] The homogenate was centrifuged at 18000 rpm for 50 min at 4° C. and the membrane protein pellet resuspended in cold buffer A using the Polytron (2×20 seconds). The protein concentration is determined using the Bio Rad Protein Assay and human IgG as standard. The volume of the membrane protein suspension is adjusted to a final concentration of about 2 mg protein/mL. The suspension is then once again homogenized (Polytron) on ice at 25000 rpm for 20 seconds before being aliquoted and stored at −80° C.
Radio Ligand Binding Assay: Serial dilutions of compounds (stock in 10 mM DMSO) are prepared by first diluting the compounds in DMSO followed by a 1:50 dilution into assay buffer (10 mM HEPES, pH 8.0, 100 mM NaCl, 5 mM MgCl2, 1 mM CaCl2, 0.5% fatty acid-free BSA, 0.05% Tween-20). […] The desired amount of membranes (20 μg/well) is diluted with assay buffer. […] 100 μL of the membrane-suspension is added and the plate stirred for 60 minutes. […] The filter plate is washed 5 times with ice-cold wash buffer, dried and sealed at the bottom. Then 20 μL of Microscint 40 is added into each well and the top of the plate is sealed. Finally the plate is counted for 2 min/well in a TopCount NXT instrument (Packard Instruments). The data are analyzed using the GraphPad Prism™ software.
In a similar manner, a binding assay with additional human serum albumin (4% HSA) has been established.

Human H3 = Human H3 (Homo sapiens (Human), UniProt Q9Y5N1); assay: Human H3 binding assay (SPA, [3H]-R-alpha-Methylhistamine); settings: 3 nM [3H]-R-alpha-Methylhistamine
rat GPR4 = rat GPR4 (Rattus norvegicus (Rat), UniProt Q4KLH9); assay: Rat GPR4 cAMP assay; format: cell-based; settings: read-out: r cAMP IC50
mouse GPR4 = mouse GPR4 (Mus musculus (Mouse), UniProt Q8BUD0); assay: Mouse GPR4 cAMP assay; format: cell-based
Chain of mouse GPR4 (Q8BUD0 whole entry): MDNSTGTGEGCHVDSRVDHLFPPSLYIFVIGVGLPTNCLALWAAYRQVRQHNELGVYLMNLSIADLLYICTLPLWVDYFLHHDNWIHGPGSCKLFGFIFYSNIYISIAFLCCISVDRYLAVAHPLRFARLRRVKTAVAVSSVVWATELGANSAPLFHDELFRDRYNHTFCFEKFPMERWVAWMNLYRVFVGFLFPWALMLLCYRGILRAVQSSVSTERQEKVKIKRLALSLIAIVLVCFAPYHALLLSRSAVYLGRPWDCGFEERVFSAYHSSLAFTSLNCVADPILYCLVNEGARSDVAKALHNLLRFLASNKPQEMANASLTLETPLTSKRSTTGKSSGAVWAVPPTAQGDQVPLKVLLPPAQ

T1 sequence (P46093 whole entry): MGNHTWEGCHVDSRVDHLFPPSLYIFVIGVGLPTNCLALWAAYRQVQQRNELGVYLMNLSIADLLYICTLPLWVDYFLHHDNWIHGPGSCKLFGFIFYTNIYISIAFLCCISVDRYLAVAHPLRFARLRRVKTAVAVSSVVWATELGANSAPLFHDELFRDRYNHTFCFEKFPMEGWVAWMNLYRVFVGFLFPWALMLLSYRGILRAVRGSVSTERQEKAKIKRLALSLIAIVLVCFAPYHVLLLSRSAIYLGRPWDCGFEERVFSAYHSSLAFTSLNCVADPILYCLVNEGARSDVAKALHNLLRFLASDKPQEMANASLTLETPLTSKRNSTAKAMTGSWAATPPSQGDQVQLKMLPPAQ
Chain of rat GPR4 (Q4KLH9 whole entry): as the sequence (Q8BUD0 whole entry) above, with G8W, H51R, S339T counted along it
Chain of Human H3 (Q9Y5N1 whole entry): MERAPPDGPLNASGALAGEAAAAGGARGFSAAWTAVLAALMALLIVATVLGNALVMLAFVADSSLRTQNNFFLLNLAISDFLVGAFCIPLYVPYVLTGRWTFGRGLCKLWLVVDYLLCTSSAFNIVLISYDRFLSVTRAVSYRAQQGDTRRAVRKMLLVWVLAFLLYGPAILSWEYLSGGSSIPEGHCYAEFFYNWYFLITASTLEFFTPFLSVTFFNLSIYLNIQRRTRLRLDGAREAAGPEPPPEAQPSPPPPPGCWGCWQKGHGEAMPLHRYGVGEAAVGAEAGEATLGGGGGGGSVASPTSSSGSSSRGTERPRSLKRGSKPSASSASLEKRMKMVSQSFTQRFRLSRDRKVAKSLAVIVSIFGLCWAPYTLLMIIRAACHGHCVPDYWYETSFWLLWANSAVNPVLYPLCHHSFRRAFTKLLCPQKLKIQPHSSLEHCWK

Structure (SMILES)	Inhibition of swelling ([1]; 30 mg/kg bid) [%]	Inhibition of swelling ([1]; 60 mg/kg bid) [%]	Inhibition of swelling ([1]; 90 mg/kg bid) [%]	Δ tissue weight [2] [%]	% reversal of hyperalgesia (CFA-induced hyperalgesia; 3 mg/kg, 1 h) [%]	% reversal of hyperalgesia (CFA-induced hyperalgesia; 3 mg/kg, 3 h) [%]	% reversal of hyperalgesia (CFA-induced hyperalgesia; 3 mg/kg, 6 h) [%]	% reversal of hyperalgesia (CFA-induced hyperalgesia; 10 mg/kg, 1 h) [%]	% reversal of hyperalgesia (CFA-induced hyperalgesia; 10 mg/kg, 3 h) [%]	% reversal of hyperalgesia (CFA-induced hyperalgesia; 10 mg/kg, 6 h) [%]	% reversal of hyperalgesia (CFA-induced hyperalgesia; 30 mg/kg, 1 h) [%]	% reversal of hyperalgesia (CFA-induced hyperalgesia; 30 mg/kg, 3 h) [%]	% reversal of hyperalgesia (CFA-induced hyperalgesia; 30 mg/kg, 6 h) [%]	IC50 (human GPR4 [3]) [nM]	IC50 (human GPR4 [4]) [nM]	IC50 (human GPR4 [5]) [nM]	IC50 (Human H3) [nM]	IC50 (rat GPR4) [nM]	IC50 (mouse GPR4) [nM]
CCc1nn2c(C)cc(C)nc2c1Cc1ccc(-c2nnc(C3CCNCC3)o2)cc1 [Example 35, 2-Ethyl-5,7-dimethyl-3-[4-(5-piperidin-4-yl-[,3,4]oxadiazol-2-yl)-benzyl]-pyrazolo[1,5-a]pyrimidine]	26	34	40	49	36	25	5	43	36	15	62	47	25						
CCc1nn2c(C)cc(C)nc2c1Cc1ccc(/C=C/CN2CCN[C@@H](C)C2)cc1 [Example 9, 2-Ethyl-5,7-dimethyl-3-{4-[(E)-3-((S)-3-methyl-piperazin-1-yl)-propenyl]-benzyl}-pyrazolo[1,5-a]pyrimidine]				44										59	19	6	18000	1440	890
